Key:
[1] = molecular target: Cdk6/CyclinD3 (Homo sapiens, UniProt Q00534); test: Cdk6 kinase inhibition assay (33P-ATP filter plate, Rb substrate); format: biochemical; details: recombinant Cdk6/CyclinD3, Rb substrate, 25 μM ATP, 1 hour room temperature; read-out: Cdk 6 IC50
Protocol: (§1) The Cdk4 and Cdk6 inhibitory activity of the compounds is measured with a kinase inhibition assay using recombinant Cdk4/CyclinD1 or Cdk6/CyclinD3 protein complexes. The protein substrate used in the assay is the retinoblastoma protein (Rb). The kinase reactions are carried out in a 96-well filter plate (MSDV N6B50, Millipore). Compounds are serially diluted in kinase buffer (20 mM Tris-HCl, pH 7.4, 50 mM NaCl, 1 mM DTT, 1 mg/ml BSA) and added to the reaction mixture containing 2.5 ng/ml Cdk4/CyclinD1 or Cdk6/CyclinD3, 25 μM ATP, 10 μCi/ml [^33P]-ATP, 0.1 μg/ml Rb in the kinase buffer. The mixture is incubated at room temperature for 1 hour and the proteins precipitated with an equal volume of 20% TCA. The plates are washed with 10% TCA according to the manufacturer's instruction and dried at room temperature. The amount of the phosphorylated Rb is determined with a TopCount (PerkinElmer). The IC50 of a compound is determined by nonlinear regression curve fitting using software program Prism 5 (GraphPad Software).

[2] = molecular target: Cdk4/CyclinD1 (Homo sapiens, UniProt P11802); test: Cdk4 kinase inhibition assay (33P-ATP filter plate, Rb substrate); format: biochemical; details: recombinant Cdk4/CyclinD1, Rb substrate, 25 μM ATP, 1 hour room temperature; read-out: Cdk 4 IC50
Protocol: as §1

Chain of Cdk4/CyclinD1 (P11802 whole entry): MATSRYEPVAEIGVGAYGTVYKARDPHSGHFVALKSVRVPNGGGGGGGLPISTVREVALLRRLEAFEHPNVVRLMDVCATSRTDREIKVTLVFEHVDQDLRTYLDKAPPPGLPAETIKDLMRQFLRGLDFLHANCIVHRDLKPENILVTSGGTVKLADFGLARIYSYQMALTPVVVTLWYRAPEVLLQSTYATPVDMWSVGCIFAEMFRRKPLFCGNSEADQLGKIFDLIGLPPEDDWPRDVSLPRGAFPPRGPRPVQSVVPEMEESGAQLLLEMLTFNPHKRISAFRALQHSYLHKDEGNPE
Chain of Cdk4/CyclinD1 (P24385 whole entry partner): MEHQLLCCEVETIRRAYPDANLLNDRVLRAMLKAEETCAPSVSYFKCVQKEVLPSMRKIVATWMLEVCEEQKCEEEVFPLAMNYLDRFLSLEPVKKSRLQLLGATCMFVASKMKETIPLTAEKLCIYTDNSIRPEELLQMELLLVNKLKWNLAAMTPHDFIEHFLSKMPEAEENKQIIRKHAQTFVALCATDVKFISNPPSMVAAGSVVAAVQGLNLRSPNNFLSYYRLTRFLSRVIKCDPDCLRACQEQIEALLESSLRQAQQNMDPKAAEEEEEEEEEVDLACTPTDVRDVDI
Chain of Cdk6/CyclinD3 (Q00534 whole entry): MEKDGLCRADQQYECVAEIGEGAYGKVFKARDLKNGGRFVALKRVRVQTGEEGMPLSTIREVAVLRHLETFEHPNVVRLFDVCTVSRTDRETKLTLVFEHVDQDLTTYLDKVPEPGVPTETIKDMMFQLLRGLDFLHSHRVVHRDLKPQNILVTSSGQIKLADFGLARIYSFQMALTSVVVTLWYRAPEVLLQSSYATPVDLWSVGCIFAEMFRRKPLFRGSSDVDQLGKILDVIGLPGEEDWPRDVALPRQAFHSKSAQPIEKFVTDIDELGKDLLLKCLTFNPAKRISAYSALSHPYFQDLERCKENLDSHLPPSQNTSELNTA
Chain of Cdk6/CyclinD3 (P30281 whole entry partner): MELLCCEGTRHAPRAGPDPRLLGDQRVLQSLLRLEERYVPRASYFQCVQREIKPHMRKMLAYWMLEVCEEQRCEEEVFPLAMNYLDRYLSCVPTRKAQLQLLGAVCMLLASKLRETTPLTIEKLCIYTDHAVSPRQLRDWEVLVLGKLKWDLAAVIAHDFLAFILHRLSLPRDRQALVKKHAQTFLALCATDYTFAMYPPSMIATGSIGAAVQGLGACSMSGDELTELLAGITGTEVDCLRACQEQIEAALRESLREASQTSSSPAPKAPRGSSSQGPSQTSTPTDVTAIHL

Which IC50 [1] does the source give for `CC1(C)CCC2(CC1)Oc1ncccc1-c1cnc(Nc3ccc(N4CCNCC4)cn3)nc12` [Example 27, 4,4-dimethyl-N-(5-(1-piperazinyl)-2-pyridinyl)spiro[cyclohexane-1,5′-pyrido[3′,3′:5,6]pyrano[3,4-d]pyrimidin]-3′-amine] here?
The IC50 was 68 nM.

And the IC50 [2]?
Its IC50 is 74 nM.

Which results are given for `CC1CC(O)C2(CC=CC2)c2nc(Nc3ccc(N4CCNCC4)cn3)ncc21` [Example 71, (7S)-5′-methyl-2′-((5-(1-piperazinyl)-2-pyridinyl)amino)-6′,7′-dihydro-5′H-spiro[cyclopent-3-ene-1,8′-quinazolin]-7′-ol]?
IC50 [1]: 510 nM; IC50 [2]: 710 nM

For `c1cc2c(cn1)C1(CCOCC1)c1nc(Nc3ccc(N4CCNCC4)cn3)ncc1-2` [Example 63, N-(5-(1-piperazinyl)-2-pyridinyl)-2,3,5,6-tetrahydrospiro[pyran-4,9′-pyrido[4′,3′:3,4]cyclopenta[1,2-d]pyrimidin]-2′-amine], which IC50 [2] is on record?
Its IC50 is 410 nM.

`CN1CCN(c2ccc(Nc3ncc4c(n3)C3(CCCCC3)Oc3ccccc3-4)cc2)CC1` [Example 3, N-(4-(4-methyl-1-piperazinyl)phenyl)spiro[chromeno[3,4-d]pyrimidine-5,1′-cyclohexan]-3-amine] was tested. Which IC50 [1] did it give?
The IC50 was 14.2 nM.

What about the IC50 [2] of the same molecule?
The IC50 was 14.2 nM.

What does the source list for `CS(=O)(=O)c1cccc2c1OC1(CCCCC1)c1nc(Nc3ccc(N4CCNCC4)cn3)ncc1-2` [Example 23, 7-(methylsulfonyl)-N-(5-(1-piperazinyl)-2-pyridinyl)spiro[chromeno[3,4-d]pyrimidine-5,1′-cyclohexan]-3-amine]?
IC50 [1]: 2620 nM; IC50 [2]: 2850 nM

Which results are given for `c1cnc2c(c1)-c1cnc(Nc3ccc(N4CCNCC4)cc3)nc1C1(CCCCC1)O2` [Example 29, N-(4-(1-piperazinyl)phenyl)spiro[cyclohexane-1,5′-pyrido[3′,2′:5,6]pyrano[3,4-d]pyrimidin]-3′-amine]?
IC50 [1]: 1.1 nM; IC50 [2]: 5.9 nM

`CC1(C)CCc2cnc(Nc3ccc(N4CCNCC4)cc3)nc21` [Example 49, 7,7-dimethyl-N-(4-(1-piperazinyl)phenyl)-6,7-dihydro-5H-cyclopenta[d]pyrimidin-2-amine] was tested. Which IC50 [2] did it give?
The IC50 was 668 nM.

How did the IC50 [2] turn out when `CC1=CC(=O)C2(CCCC2)c2nc(Nc3ccc(N4CCNCC4)cn3)ncc21` [Example 73, 5′-methyl-2′-((5-(1-piperazinyl)-2-pyridinyl)amino)-7′H-spiro[cyclopentane-1,8′-quinazolin]-7′-one] was run?
Its IC50 is 2500 nM.

With `c1cnc2c(c1)OC1(CCOCC1)c1nc(Nc3ccc(N4CCNCC4)cc3)ncc1-2` [Example 25, N-(4-(1-piperazinyl)phenyl)-2,3,5,6-tetrahydrospiro[pyran-4,6′-pyrido[2′,3′:5,6]pyrano[3,4-d]pyrimidin]-8′-amine] as the molecule, how does the IC50 [1] read?
The IC50 was 540 nM.

And the IC50 [2]?
The IC50 was 330 nM.

Which IC50 [1] does the source give for `c1ccc2c(c1)OC1(CCCC1)c1nc(Nc3ccc(N4CCNCC4)cn3)ncc1-2` [Example 15, N-(5-(1-piperazinyl)-2-pyridinyl)spiro[chromeno[3,4-d]pyrimidine-5,1′-cyclopentan]-3-amine] here?
The IC50 was 13.5 nM.

What about the IC50 [2] of the same molecule?
The IC50 was 84 nM.

What does the source list for `C[C@@H]1CC(=O)C2(CC=CC2)c2nc(Nc3ccc(N4CCNCC4)cn3)ncc21` [Example 74, (5′R)-5′-methyl-2′-((5-(1-piperazinyl)-2-pyridinyl)amino)-5′,6′-dihydro-7′H-spiro[cyclopent-3-ene-1,8′-quinazolin]-7′-one]?
IC50 [1]: 1800 nM; IC50 [2]: 3500 nM

Which IC50 [1] does the source give for `c1ccc2c(c1)-c1cnc(Nc3ccc(N4CCNCC4)cc3)nc1C21CCNCC1` [Example 50, N-(4-(1-piperazinyl)phenyl)spiro[indeno[2,1-d]pyrimidine-9,4′-piperidin]-2-amine] here?
Its IC50 is 81 nM.

What about the IC50 [2] of the same molecule?
The IC50 was 56.2 nM.

Which results are given for `CC1(C)C=CC2(CC1)c1cnccc1-c1cnc(Nc3ccc(N4CCNCC4)cc3)nc12` (racemic) [Example 44, (racemic)-4,4-dimethyl-N-(4-(1-piperazinyl)phenyl)spiro[cyclohex-2-ene-1,9′-pyrido[4′,3′:3,4]cyclopenta[1,2-d]pyrimidin]-2′-amine]?
IC50 [1]: 27 nM; IC50 [2]: 0.8 nM

With `CC1(C)CC2(CCO1)Oc1ncccc1-c1cnc(Nc3ccc(N4CCNCC4)cc3)nc12` (racemic) [Example 35, (racemic)-2,2-dimethyl-N-(4-(1-piperazinyl)phenyl)-2,3,5,6-tetrahydrospiro[pyran-4,5′-pyrido[3′,2′:5,6]pyrano[3,4-d]pyrimidin]-3′-amine] as the molecule, how does the IC50 [1] read?
Its IC50 is 60 nM.

And the IC50 [2]?
The IC50 was 77 nM.

Which results are given for `OC1CCC2(CC1)Oc1ncccc1-c1cnc(Nc3ccc(N4CCNCC4)cn3)nc12` (mixture of isomers) [Example 40]?
IC50 [1]: 33 nM; IC50 [2]: 84 nM

`O=C1NC2(CCCCC2)c2nc(Nc3ccc(N4CCNCC4)cc3)ncc21` [Example 68, 2′-((4-(1-piperazinyl)phenyl)amino)spiro[cyclohexane-1,7′-pyrrolo[3,4-d]pyrimidin]-5′(6′H)-one] was tested. Which IC50 [2] did it give?
The IC50 was 1140 nM.

`O=C(c1csc(Nc2ncc3c(n2)C2(CCCCC2)c2cnccc2-3)n1)N1CCNCC1` [Example 48, N-(4-(1-piperazinylcarbonyl)-1,3-thiazol-2-yl)spiro[cyclohexane-1,9′-pyrido[4′,3′:3,4]cyclopenta[1,2-d]pyrimidin]-2′-amine] was tested. Which IC50 [1] did it give?
Its IC50 is 266 nM.

What about the IC50 [2] of the same molecule?
Its IC50 is 44 nM.

For `CN(C)C1CCN(c2ccc(Nc3ncc4c(n3)C3(C=CC(C)(C)CC3)c3cnccc3-4)nn2)CC1` (racemic) [Example 76, (racemic)-4,4-dimethyl-N-(6-(4-(dimethylamino)piperidin-1-yl)-pyridazin-3-yl)spiro[cyclohex-2-ene-1,9′-pyrido[4′,3′:3,4]cyclopenta[1,2-d]pyrimidin]-2′-amine], which IC50 [1] is on record?
Its IC50 is 205 nM.

What about the IC50 [2] of the same molecule?
Its IC50 is 14.6 nM.

— patent US8389533B2, “Gem-disubstituted and spirocyclic amino pyridines/pyrimidines as cell cycle inhibitors” (Amgen Inc., priority 2008, dated 2013)
